Measured values published in patent publication EP4638411B1, “PLASTICIZER” (priority 2022, dated 2024).

How the values were obtained:
[1] = HCl residual stability of plasticized PVC films at 200 °C; conditions: PVC film, 60 phr plasticizer
Source text: Rezeptur: siehe nachfolgende Tabelle 5. Tabelle 5.
150 g PVC (Homopolymeres Suspensions-PVC, Markenname Inovyn® 271 PC); 90 g Weichmacher-Zusammensetzung und 3 g Ba/Zn-Stabilisator, Markenname Baerostab® UBZ 760 XLP RF wurden mit einem Handmixer bei Raumtemperatur vermischt. Die Mischung wurde anschließend auf einem ölbeheizten Labormischwalzwerk (Fa. Collin, Automatikwalzwerk Typ W250M, Durchmesser: 252 mm, Breite: 450 mm) plastifiziert und zu einem Walzfell verarbeitet. Die Temperatur der beiden Walzen betrug jeweils 180 °C; die Drehzahlen lagen bei 15 Umdrehungen/min. (vordere Walze) und 12 Umdrehungen/min. (hintere Walze); die Walzzeit betrug 5 Minuten. Der Walzenspalt wurde auf 0,5 mm eingestellt. Man erhielt so ein Walzfell mit einer Dicke von 0,53 mm. Das abgekühlte Walzfell wurde anschließend bei einer Temperatur von 190 °C und einem Druck von 150 bar innerhalb von 180 s auf einer Presse vom Typ "Laborplattenpresse 400 P" der Fa. Collin zu einer Weich-PVC-Folie mit einer Dicke von 0,50 mm verpresst. Unter Beibehaltung des Pressdrucks wurde die Pressfolie innerhalb von 10 Minuten auf ca. 40 °C abgekühlt.
Die Bestimmung der HCl-Reststabilität erfolgt nach DIN EN 60811-405 (VDE 0473-811-405): Als Prüfgerät wird ein Metallblock-Thermostat von Liebisch Labortechnik bei einer Prüftemperatur von 200 °C verwendet. Es wird immer eine 3-fach Bestimmung vorgenommen. Ca. 50 mg der Walzfolien werden abgewogen, auf 3 cm Länge zugeschnitten und im unteren Teil des Glasröhrchens positioniert. Am oberen Ende des Glasröhrchens wird ein ca. 10 mm langer Indikatorpapierstreifen (Lackmusspapier) so positioniert, dass ca. 2 mm herausstehen. Die so präparierten Glasröhrchen werden in den Metallblock positioniert und die Zeit notiert, bis ein Farbumschlag in Richtung Rot auftritt. Aus den drei Messwerten der drei Proben wird der arithmetische Mittelwert gebildet.

[2] = Acid number (DIN EN ISO 2114); assay type: physicochemical
Source text: (§1) Die nachfolgende Tabelle 3 gibt die Eigenschaften der wie oben beschriebenen Verbindungen wieder. Tabelle 3.

[3] = Viscosity at 20 °C (DIN 51562-1); assay type: physicochemical
Source text: as §1

[4] = Dissolution (gelling) temperature of PVC in plasticizer, plate/plate rheometer, temperature at viscosity maximum; assay type: physicochemical; conditions: 5 phr PVC, 95 phr plasticizer, 2 phr Ba-Zn stabilizer; 5 °C/min; mean of four measurements
Source text: Anwendungstechnische Prüfungen: II.a) Bestimmung der Lösetemperatur der offenbarungsgemäßen Weichmacher-Zusammensetzungen: Zur Bestimmung der Lösetemperatur der offenbarungsgemäßen Weichmacher-Zusammensetzungen wurden etwa 10 Gramm einer Mischungen nach folgender Rezeptur (siehe Tabelle 4) hergestellt. Die Mischung wird mit einer Pipette aufgerührt und dann sofort ca. 30 Tropfen der homogenen Mischung auf das Platte-Platte-Messsystem gegeben. Tabelle 4.
Die Viskositätsmessungen wurden mit einem beheizbaren Oszillations- und Rotations-Rheometer MCR 302 von Anton Paar in einem Rotationsversuch durchgeführt.
Die Messung erfolgte in zwei Rampen. Die erste Rampe für die Dauer von 120 s bei D=10 (1/s) und 30 °C dient zum Temperieren der Probe. Die zweite Rampe bei D=10 (1/s) und kontinuierlicher Temperatursteigerung von 5 °C min ist dann die eigentliche Messung. Der Abbruch erfolgte manuell, nachdem das Viskositätsmaximum überschritten war. Als Ergebnis der Messung wird die Temperatur ermittelt, bei der das Maximum der Viskosität erreicht ist. Diese Messungen werden insgesamt viermal durchgeführt und der arithmetische Mittelwert aller vier Messungen als das Endergebnis gewertet. Il.b) Herstellung und Prüfung von Weich-PVC-Folien hergestellt unter Einsatz erfindungsgemäßer Weichmacher-Zusammensetzungen

[5] = Water content (DIN 51777-1); assay type: physicochemical
Source text: as §1

[6] = Density at 20 °C (DIN 51757 method 4); assay type: physicochemical; conditions: DIN 51757 Verf. 4
Source text: as §1

[7] = Refractive index nD20 (DIN 51423-2); assay type: physicochemical
Source text: as §1

Compound | HCl-Reststabilität [1] | Säurezahl [2] | Viskosität, 20 °C [3] [mPa·s] | Lösetemperatur [4] [°C] | Wassergehalt [5] | Dichte, 20 °C [6] | Brechzahl, n^D20 [7]
CC(C)CCCC(C)CCOC(=O)CCC(=O)CCC(=O)OCCC(C)CCCC(C)C (stereo not shown) [Verbindung I.2, 4-Oxoheptandisäure-di-(3,7-dimethyloctylester)] | 13,4 min | 0,26 mg KOH/g | 52 | 147 | 0,013 Gew.-% | 0,9456 g/cm^3 | 1,5160
CCCCC(CC)COC(=O)CCC(=O)CCC(=O)OCC(CC)CCCC (stereo not shown) [4-Oxoheptandisäure-di-(2-ethylhexylester), reference compound] | 11,1 min | 1,5 mg KOH/g | 32 | 127 | 0,07 Gew.-% | 0,9661 g/cm^3 | 1,4534
4-Oxoheptandisäure-di-isotridecylester [Verbindung I.6] | 12 min | 0,31 mg KOH/g | 101 | 162 | 0,016 Gew.-% | 0,9365 g/cm^3 | 1,4605
CCCCCC(CCC)COC(=O)CCC(=O)CCC(=O)OCC(CCC)CCCCC (stereo not shown) [Verbindung I.1, 4-Oxoheptandisäure-di-(2-propylheptylester)] | 15 min | 1,1 mg KOH/g | 51 | 139 | 0,003 Gew.-% | 0,9473 g/cm^3 | 1,4553
